Assay results reported in publication PMC11218997, “Human cytomegalovirus deploys molecular mimicry to recruit VPS4A to sites of virus assembly” (PLOS Pathogens, 2024).
Where a SMILES comes first, the peptide text is derived from it.

How the values were obtained:
[1] = target: T1, human VPS4 MIT domain (residues 1–84) (Homo sapiens, UniProt Q9UN37); assay: Isothermal titration calorimetry, titrant into VPS4A MIT domain; type: binding; conditions: ITC, 25°C; for -TΔS / N (stoichiometry) / ΔG / ΔH: n = 2–4
T1 construct: The MIT domain (residues 1–84) of human VPS4A (UniProt Q9UN37); GST with human rhinovirus 3C cleavage site (N, cleaved yes); made in house; host or cells: Escherichia coli T7 Express lysY/Iq
T1 sequence (Q9UN37 1-84): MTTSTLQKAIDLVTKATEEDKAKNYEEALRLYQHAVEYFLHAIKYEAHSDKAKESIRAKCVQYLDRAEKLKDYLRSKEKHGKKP
Method: Proteins were expressed in Escherichia coli T7 Express lysY/I^q cells (New England Biolabs) in 2×TY medium at 37°C to an OD600 of 0.8–1.2 before inducing protein expression by addition of 0.4 mM isopropyl β-D-thiogalactopyranoside (IPTG). Expression of GST-tagged pUL71 truncations was induced at 37°C for 3 h, whereas expression of GST-VPS4A MIT domain was induced at 22°C for 16 h. Cells were resuspended at 4°C in GSH lysis buffer (20 mM Tris pH 7.5, 300 mM NaCl, 0.5 mM MgCl2, 1.4 mM β-mercaptoethanol, 0.05% TWEEN-20) supplemented with 200–400 U bovine DNase I (Merck) and 200 μL EDTA-free protease inhibitor cocktail (Merck) before lysis using a TS series cell disruptor (Constant Systems) at 24 kpsi. Lysates were cleared by centrifugation (40,000×g, 30 min, 4°C) and incubated with glutathione Sepharose 4B (Cytiva) for 1 h at 4°C before extensive washing (≥ 20 column volumes) with GSH wash buffer (20 mM Tris pH 7.5, 300 mM NaCl, 1 mM DTT) and elution using wash buffer supplemented with 25 mM reduced L-glutathione. GST-tagged pUL71 truncations were subjected to size-exclusion chromatography (SEC) using a Superdex 200 16/600 column (Cytiva) equilibrated in GSH wash buffer. For GST-VPS4A MIT domain, the GST tag was removed by supplementing the pooled SEC fractions containing the protein of interest with 0.5 mM EDTA and incubating overnight at 4°C with 50 μg of GST-tagged human rhinovirus 3C protease. Free GST and uncleaved GST-VPS4A MIT domain were captured using glutathione Sepharose and the cleaved complex was subjected to SEC using an S75 10/300 GL column (Cytiva) equilibrated in 50 mM HEPES pH 8, 100 mM NaCl, 0.5 mM Tris(2-carboxyethyl)phosphine (TCEP).
Where necessary, proteins were exchanged into ITC buffer (50 mM HEPES pH 8, 100 mM NaCl, 0.5 mM TCEP) by SEC using Superdex 200 (GST-tagged titrants) or 75 (VPS4 MIT domain) 10/300 GL columns (Cytiva), or by extensive dialysis using tubing with a 3.5 kDa molecular weight cut-off (Pierce). Protein concentrations were estimated from A280 using extinction coefficients calculated from the protein sequence. Peptides encoding residues 166–181 of human CHMP6 or various truncations of HCMV pUL71 were purchased from Genscript at >95% purity and the dry peptides were resuspended in ITC buffer to the desired concentration. ITC experiments were performed at 25°C using an MicroCal PEAQ-ITC automated calorimeter (Malvern Panalytical). Titrants (GST-pUL71, GST-CHMP6 or peptides) were titrated into VPS4A MIT domain using either 19×2 μL or 12×3 μL injections (S1 Table). Data were analysed using the MicroCal PEAQ-ITC analysis software (Malvern Panalytical) and fitted using a one-site binding model.
S1 Table. Thermodynamic properties of the interactions with VPS4 MIT domain. As quantitated by isothermal titration calorimetry (ITC). Data for independent experiments are shown. For all, the cell contained human VPS4 MIT domain (residues 1-84) and pUL71 is from HCMV unless stated otherwise. –, no binding detected.

[2] = target: VPS4A MIT domain (residues 1–84) (human) (UniProt Q9UN37); assay: ITC; titrants (GST-pUL71, GST-CHMP6 or peptides) titrated into VPS4A MIT domain in the cell; 25°C; 50 mM HEPES pH 8, 100 mM NaCl, 0.5 mM TCEP; 19×2 μL or 12×3 μL injections; one-site binding model
yeast Vps4 = conditions: reported; cited from earlier work

## CC[C@H](C)[C@H](NC(=O)[C@H](CCC(N)=O)NC(=O)[C@@H](N)CCC(=O)O)C(=O)N[C@@H](CCC(=O)O)C(=O)N[C@@H](CC(C)C)C(=O)N1CCC[C@H]1C(=O)N[C@@H](CCC(=O)O)C(=O)N[C@H](C(=O)N1CCC[C@H]1C(=O)N[C@@H](CO)C(=O)N[C@@H](CCC(=O)O)C(=O)N1CCC[C@H]1C(=O)N[C@@H](CC(C)C)C(=O)N1CCC[C@H]1C(=O)N[C@@H](CCC(=O)O)C(=O)N[C@@H](CCCCN)C(=O)O)C(C)C [CHMP6 peptide] (H-EQIELPEVPSEPLPEK-OH; N-terminus and C-terminus assumed)
[1]; pH 8, mean ± SD
  -TΔS: -5.52 ± 0.58 kcal/mol
  N (stoichiometry): 1.02 ± 0.17
  ΔG: -6.85 ± 0.38 kcal/mol
  ΔH: -1.33 ± 0.51 kcal/mol
[1]; replicate 1, pH 8
  -T∆S: -6.36 kcal/mol
  N (sites): 1
  ∆G: -7.2 kcal/mol
  ∆H: -0.844 kcal/mol
[1]; replicate 2, pH 8
  -T∆S: -5.11 kcal/mol
  N (sites): 0.79
  ∆G: -7.15 kcal/mol
  ∆H: -2.04 kcal/mol
[1]; replicate 3, pH 8
  -T∆S: -5.14 kcal/mol
  N (sites): 1.1
  ∆G: -6.46 kcal/mol
  ∆H: -1.32 kcal/mol
[1]; replicate 4, pH 8
  -T∆S: -5.46 kcal/mol
  N (sites): 1.17
  ∆G: -6.57 kcal/mol
  ∆H: -1.1 kcal/mol

## CC[C@H](C)[C@H](NC(=O)[C@@H](N)CCC(=O)O)C(=O)N[C@@H](CC(=O)O)C(=O)N1CCC[C@H]1C(=O)N[C@@H](CC(C)C)C(=O)N[C@@H](CC(C)C)C(=O)N[C@@H](Cc1c[nH]cn1)C(=O)N[C@@H](CCC(N)=O)C(=O)N[C@@H](CCC(=O)O)C(=O)N[C@H](C(=O)NCC(=O)N[C@@H](CC(C)C)C(=O)N[C@@H](Cc1ccc(O)cc1)C(=O)N[C@@H](CCC(N)=O)C(=O)N[C@@H](C)C(=O)N[C@@H](CC(C)C)C(=O)N1CCC[C@H]1C(=O)N[C@@H](CC(N)=O)C(=O)N[C@@H](C)C(=O)N[C@H](C(=O)N[C@H](C(=O)N[C@@H](CCC(=O)O)C(=O)N[C@@H](C)C(=O)N1CCC[C@H]1C(=O)N[C@@H](CO)C(=O)N[C@@H](CCC(=O)O)C(=O)O)[C@@H](C)O)C(C)C)[C@@H](C)O [HHV6 pUL71 peptide] (H-EIDPLLHQETGLYQALPNAVTEAPSE-OH; N-terminus and C-terminus assumed)
[1]; pH 8, mean ± SD
  -TΔS: 1.01 ± 1.62 kcal/mol
  N (stoichiometry): 1.18 ± 0.03
  ΔG: -6.16 ± 0.11 kcal/mol
  ΔH: -7.17 ± 1.52 kcal/mol
[1]; replicate 1, pH 8
  -T∆S: -0.117 kcal/mol
  N (sites): 1.16
  ∆G: -6.26 kcal/mol
  ∆H: -6.14 kcal/mol
[1]; replicate 2, pH 8
  -T∆S: 0.27 kcal/mol
  N (sites): 1.22
  ∆G: -6.18 kcal/mol
  ∆H: -6.45 kcal/mol
[1]; replicate 3, pH 8
  -T∆S: 2.87 kcal/mol
  N (sites): 1.17
  ∆G: -6.04 kcal/mol
  ∆H: -8.91 kcal/mol

## CC[C@H](C)[C@H](NC(=O)[C@H](CCC(=O)O)NC(=O)[C@H](CCCNC(=N)N)NC(=O)[C@H](CCC(=O)O)NC(=O)[C@H](Cc1c[nH]cn1)NC(=O)[C@H](CC(N)=O)NC(=O)[C@@H](NC(=O)[C@@H]1CCCN1)[C@@H](C)O)C(=O)N[C@@H](CC(C)C)C(=O)N[C@@H](CC(=O)O)C(=O)N[C@@H](CC(C)C)C(=O)N[C@@H](CCSC)C(=O)N[C@@H](CCCNC(=N)N)C(=O)N[C@@H](Cc1c[nH]cn1)C(=O)N[C@@H](CO)C(=O)N1CCC[C@H]1C(=O)N[C@@H](CC(=O)O)C(=O)N[C@H](C(=O)N1CCC[C@H]1C(=O)N[C@@H](CCCNC(=N)N)C(=O)N[C@@H](CCC(=O)O)C(=O)N[C@@H](C)C(=O)N[C@H](C(=O)N[C@@H](CCSC)C(=O)N[C@@H](CO)C(=O)N1CCC[C@H]1C(=O)O)C(C)C)C(C)C [pUL71 (300–325) peptide] (H-PTNHEREILDLMRHSPDVPREAVMSP-OH)
[1]; 50 mM HEPES pH 8, 100 mM NaCl, 0.5 mM TCEP, one-site model, mean ± SD, n = 2–4 independent experiments
  Kd: 5.59 ± 0.34 µM

## CHMP6 MIM2 peptide (from UniProt Q96FZ7 166-181)
[2]
  Kd: 11.2 µM
  dH: -1.33 kcal/mol
  stoichiometry N: 1.02

## GST-CHMP6: GST-tagged CHMP6 MIM2 motif (residues 168–181)
[1]; pH 8, mean ± SD
  -TΔS: -4.81 ± 0.62 kcal/mol
  ΔG: -7.18 ± 0.12 kcal/mol
[1]; replicate 1, pH 8
  -T∆S: -5.25 kcal/mol
  Kd: 4.76 µM
  N (sites): 0.786
  ∆G: -7.26 kcal/mol
  ∆H: -2.02 kcal/mol
[1]; replicate 2, pH 8
  -T∆S: -4.37 kcal/mol
  Kd: 6.32 µM
  N (sites): 0.894
  ∆G: -7.09 kcal/mol
  ∆H: -2.72 kcal/mol

## GST-pUL71 (283–336) (domain or fragment)
[2]
  Kd: 3.02 µM
  dH: -10.1 kcal/mol
  stoichiometry N: 0.91

## GST-pUL71 (300–325) (domain or fragment)
[2]
  Kd: 2.25 µM
  dH: -6.66 kcal/mol
  stoichiometry N: 1.22

## GST-pUL71 (300–361) (domain or fragment)
[2]
  Kd: 2.98 µM
  dH: -10.1 kcal/mol
  stoichiometry N: 0.87

## GST-pUL71(283–361) (domain or fragment)
[2]
  Kd: 2.84 µM
  dH: -9.05 kcal/mol
  stoichiometry N: 1

## HHV6 pU44 vMIM2 peptide (residues 174–199) (from UniProt A0A140AK71 174-199)
[2]
  Kd: 30.9 µM
  dH: -7.17 kcal/mol
  stoichiometry N: 1.18

## pUL71 (300–325) peptide
[2]
  dH: -6.22 kcal/mol
  stoichiometry N: 1.38

B1: Vps20: the yeast CHMP6 homologue (protein, UniProt Q04272 2-221, looked up)
Vacuolar protein …: GQKSSKVHITKTDRAILEVKRSKDEIHKFTRRTDNLILVEKSQLKDLIRKNPENYKSNMKVRFLLKRIHYQEHLLQQASDQLINLENMVSTLEFKMVEKQFINGLKNGNEILKKLNKEFSNVDELMDDVQDQIAYQNEINETLSRSLVGTSNYEDDLDKELDALESELNPEKMNNAKVANMPSTEGLPSLPQGEQTEQKEREEFATEERSDTKEPLALLS
Yeast Vps4
  Kd: 188 µM

B2: Vfa1: yeast protein Vfa1 that is proposed to positively regulate Vps4 activity (protein, UniProt P40080 1-203, looked up)
VPS4-associated protein 1: MINEYVARKVALKDMQPCAICSKPSTTVLYNASGPDWLYTCEIHLQDNPQFVIPLYSTEYNEAVAQLKLVKGKMDSLTSAQTQLGSWDGWVTKIFSKKEKETNNSKDPDPTTTDSTDTSPQAKNDAEILSETKKQYSKILDKVTELQRKNRKYELAKIMFESRLLRKRTEQVNRERYLKEQENYSNTDPEELLRKHVFPSVPK
Yeast Vps4
  Kd: 1.8 µM
  fold tighter binding to Vps4 than Vps20: approximately 100 fold
